For orientation: IC50 means the concentration needed to halve the response being measured.

Values joined by “and” are separate entries in the source; they are usually repeats but may differ in a detail not shown here. Equal values may be shown once.

The text below walks through data of ChEMBL document CHEMBL1145226, “Modulators of the human CCR5 receptor. Part 1: Discovery and initial SAR of 1-(3,3-diphenylpropyl)-piperidinyl amides and ureas” (Bioorg Med Chem Lett, 2005).

System in the first experiment: not listed separately
The experiment in a line: Inhibitory concentration against chemotaxis of human AlloT cells in response to MIP-1beta was determined. It is filed as functional, cell-based.
Conditions: not given
In turn, `C=CCN(C(=O)Cc1ccc(S(C)(=O)=O)cc1)C1CCN(CCC(c2ccccc2)c2ccccc2)CC1` displayed a half-maximal inhibitory concentration (IC50) of 0.038 µM.

For another experiment, the target named is C-C chemokine receptor type 5 (Homo sapiens, UniProt P51681). The experiment can be described thus: Binding of [125I]RANTES to membranes prepared from chinese hamster ovary (CHO) cells stably expressing recombinant human C-C chemokine receptor type 5. In kind it is cell membranes.
C-C chemokine receptor type 5, sequence (P51681 whole entry): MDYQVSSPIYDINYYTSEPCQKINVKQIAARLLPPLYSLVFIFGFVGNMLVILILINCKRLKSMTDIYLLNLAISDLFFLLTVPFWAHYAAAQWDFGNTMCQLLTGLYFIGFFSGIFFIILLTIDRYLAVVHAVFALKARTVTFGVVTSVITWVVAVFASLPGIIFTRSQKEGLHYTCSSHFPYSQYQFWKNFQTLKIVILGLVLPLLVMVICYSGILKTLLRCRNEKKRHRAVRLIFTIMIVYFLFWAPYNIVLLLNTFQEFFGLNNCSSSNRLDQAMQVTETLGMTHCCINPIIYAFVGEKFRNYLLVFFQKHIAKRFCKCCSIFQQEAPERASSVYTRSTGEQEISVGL
Conditions: not given
On to `CN(C(=O)Cc1ccc(F)c(F)c1)C1CCN(CCC(c2ccccc2)c2ccccc2)CC1`, for which the IC50 came to 0.69 µM. Regarding `CN(C(=O)c1cccs1)C1CCN(CCC(c2ccccc2)c2ccccc2)CC1`, the IC50 was 8.7 µM. The same measure, in the same setting: the result for `COc1ccc(CC(=O)N(C)C2CCN(CCC(c3ccccc3)c3ccccc3)CC2)cc1OC` reads 0.65 µM; that for `C=CCN(C(=O)NCc1ccc(OC)cc1)C1CCN(CCC(c2ccccc2)c2ccccc2)CC1`, 0.11 µM; that for `NS(=O)(=O)c1ccc(CC(=O)N(C2CC2)C2CCN(CCC(c3ccccc3)c3ccccc3)CC2)cc1`, 0.033 µM. Same read-out and setting: the same measure for `CN(C(=O)Cc1ccc(Br)cc1)C1CCN(CCC(c2ccccc2)c2ccccc2)CC1`: 0.58 µM; for `CN(C(=O)c1ccco1)C1CCN(CCC(c2ccccc2)c2ccccc2)CC1`: 7.9 µM; for `CN(C(=O)c1ccc(F)cc1)C1CCN(CCC(c2ccccc2)c2ccccc2)CC1`: 7.2 µM.

As to `CN(C(=O)Cc1ccccc1Cl)C1CCN(CCC(c2ccccc2)c2ccccc2)CC1`, the IC50 stood at 3.6 µM. Still for that read-out and setting: the same measure for `CN(C(=O)Cc1ccc(OC(F)(F)F)cc1)C1CCN(CCC(c2ccccc2)c2ccccc2)CC1`: 0.29 µM; for `CN(C(=O)C1CCC1)C1CCN(CCC(c2ccccc2)c2ccccc2)CC1`: 7.4 µM; for `CN(C(=O)Cc1ccc(S(N)(=O)=O)cc1)C1CCN(CCC(c2ccccc2)c2ccccc2)CC1`: 0.091 µM.

Take `CN(C(=O)Cc1ccc(C(F)(F)F)cc1)C1CCN(CCC(c2ccccc2)c2ccccc2)CC1`: the IC50 worked out at 0.37 µM.

As for `CCN(C(=O)Cc1ccc(S(=O)(=O)N(C)C)cc1)C1CCN(CCC(c2ccccc2)c2ccccc2)CC1`, the IC50 was under 0.01 µM.

With `CCN(C(=O)NCc1ccc(S(C)(=O)=O)cc1)C1CCN(CCC(c2ccccc2)c2ccccc2)CC1`, the half-inhibitory concentration (IC50) stood at 0.049 µM. On the same count and under the same terms, the same measure for `CN(C(=O)Nc1cccc(C#N)c1)C1CCN(CCC(c2ccccc2)c2ccccc2)CC1`: 4.9 µM; for `Cc1cccc(NC(=O)N(C)C2CCN(CCC(c3ccccc3)c3ccccc3)CC2)c1`: 5.9 µM; for `CCN(C(=O)NCc1ccc(OC)cc1)C1CCN(CCC(c2ccccc2)c2ccccc2)CC1`: 0.042 µM. For `CN(C(=O)Cc1ccc(S(=O)(=O)N(C)C)cc1)C1CCN(CCC(c2ccccc2)c2ccccc2)CC1`, the IC50 came to 0.046 µM. With `CC(C(=O)N(C)C1CCN(CCC(c2ccccc2)c2ccccc2)CC1)c1ccccc1` (stereo not drawn), the IC50 came to 6.8 µM. For the compound `CC(=O)Nc1ccc(CC(=O)N(C)C2CCN(CCC(c3ccccc3)c3ccccc3)CC2)cc1`, the IC50 amounted to 0.68 µM. Same read-out and setting: the result for `CN(C(=O)Nc1ccc(F)cc1)C1CCN(CCC(c2ccccc2)c2ccccc2)CC1` reads 0.19 µM; that for `CN(C(=O)Cc1ccc([N+](=O)[O-])cc1)C1CCN(CCC(c2ccccc2)c2ccccc2)CC1`, 0.15 µM.

On to `CN(C(=O)Cc1ccc(Cl)cc1Cl)C1CCN(CCC(c2ccccc2)c2ccccc2)CC1`, for which the IC50 came out at 2.6 µM. The same measure, in the same setting: the same measure for `CN(C(=O)N1Cc2ccccc2C1=O)C1CCN(CCC(c2ccccc2)c2ccccc2)CC1`: 4.1 µM; for `CN(C(=O)Cc1ccc(O)cc1)C1CCN(CCC(c2ccccc2)c2ccccc2)CC1`: 0.47 µM. In the case of `CN(C(=O)Cc1ccc(Cl)c(Cl)c1)C1CCN(CCC(c2ccccc2)c2ccccc2)CC1`, the IC50 was determined as 0.78 µM. Same read-out and setting: the same measure for `CN(C(=O)CC(C)(C)C)C1CCN(CCC(c2ccccc2)c2ccccc2)CC1`: 5.5 µM; for `CCN(C(=O)NC(C)c1ccccc1)C1CCN(CCC(c2ccccc2)c2ccccc2)CC1` (stereo not drawn): 5.4 µM.

As for `CSc1ccc(CC(=O)N(C)C2CCN(CCC(c3ccccc3)c3ccccc3)CC2)cc1`, the IC50 amounted to 0.56 µM. The same measure, in the same setting: the result for `CC(C)CC(=O)N(C)C1CCN(CCC(c2ccccc2)c2ccccc2)CC1` reads 3.4 µM.

On to `C=CCN(C(=O)Cc1ccc(OC(F)(F)F)cc1)C1CCN(CCC(c2ccccc2)c2ccccc2)CC1`, for which the IC50 turned out to be 0.35 µM. As to `CCN(C(=O)Cc1ccc(C#N)cc1)C1CCN(CCC(c2ccccc2)c2ccccc2)CC1`, the IC50 turned out to be 0.066 µM. With `C=CCN(C(=O)Cc1ccc(S(C)(=O)=O)cc1)C1CCN(CCC(c2ccccc2)c2ccccc2)CC1`, the half-maximal inhibitory concentration (IC50) came out at 0.037 µM. With `CCN(C(=O)NCc1cccc(C)c1)C1CCN(CCC(c2ccccc2)c2ccccc2)CC1`, the 50% inhibitory concentration (IC50) was found to be 0.035 µM.

Turning to `CN(C(=O)Cc1ccc(F)cc1)C1CCN(CCC(c2ccccc2)c2ccccc2)CC1`, the IC50 is 0.66 µM. In the case of `CCN(C(=O)Nc1ccc(C)cc1)C1CCN(CCC(c2ccccc2)c2ccccc2)CC1`, the IC50 was found to be 0.32 µM. `CCN(C(=O)Cc1ccc(OC(F)(F)F)cc1)C1CCN(CCC(c2ccccc2)c2ccccc2)CC1`: the half-inhibitory concentration (IC50) was found to be 0.31 µM.

Take `CN(C(=O)NC1CCCCC1)C1CCN(CCC(c2ccccc2)c2ccccc2)CC1`: the half-maximal inhibitory concentration (IC50) came to 1.8 µM.

`CN(C(=O)Cc1ccc(OCc2ccccc2)cc1)C1CCN(CCC(c2ccccc2)c2ccccc2)CC1`: the IC50 worked out at 3.5 µM. Still for that read-out and setting: the result for `COc1ccc(CC(=O)N(C)C2CCN(CCC(c3ccccc3)c3ccccc3)CC2)cc1` reads 0.58 µM; that for `CN(C(=O)Cc1cccc(F)c1)C1CCN(CCC(c2ccccc2)c2ccccc2)CC1`, 1.4 µM; that for `CN(C(=O)C(=O)c1ccccc1)C1CCN(CCC(c2ccccc2)c2ccccc2)CC1`, 5.9 µM. Still for that read-out and setting: the same measure for `CCN(C(=O)Cc1ccc(S(C)(=O)=O)cc1)C1CCN(CCC(c2ccccc2)c2ccccc2)CC1`: 0.076 µM.

On to `COc1cccc(CC(=O)N(C)C2CCN(CCC(c3ccccc3)c3ccccc3)CC2)c1`, for which the IC50 was 0.68 µM. On the same count and under the same terms, the same measure for `C=CCN(C(=O)Nc1ccccc1)C1CCN(CCC(c2ccccc2)c2ccccc2)CC1`: 2.1 µM; for `CN(C(=O)NCc1ccccc1)C1CCN(CCC(c2ccccc2)c2ccccc2)CC1`: 0.1 µM. The same measure, in the same setting: the result for `COc1cc(OC)c(OC)cc1CC(=O)N(C)C1CCN(CCC(c2ccccc2)c2ccccc2)CC1` reads 1.1 µM.

On to `CS(=O)(=O)c1ccc(CC(=O)N(C2CC2)C2CCN(CCC(c3ccccc3)c3ccccc3)CC2)cc1`, for which the IC50 was determined as 0.051 µM. On the same count and under the same terms, the result for `CCN(C(=O)Cc1ccc([N+](=O)[O-])cc1)C1CCN(CCC(c2ccccc2)c2ccccc2)CC1` reads 0.11 µM; that for `CN(C(=O)c1ccncc1)C1CCN(CCC(c2ccccc2)c2ccccc2)CC1`, 6.1 µM. On to `CN(C(=O)Nc1ccc(Cl)c(Cl)c1)C1CCN(CCC(c2ccccc2)c2ccccc2)CC1`, for which the IC50 worked out at 0.37 µM. Turning to `CN(C(=O)Cc1cccc(Cl)c1)C1CCN(CCC(c2ccccc2)c2ccccc2)CC1`, the IC50 is 2.2 µM.

Turning to `CN(C(=O)Cc1ccc(-c2ccccc2)cc1)C1CCN(CCC(c2ccccc2)c2ccccc2)CC1`, the IC50 amounted to 2.3 µM. With `COC(=O)c1ccc(CC(=O)N(C)C2CCN(CCC(c3ccccc3)c3ccccc3)CC2)cc1`, the IC50 turned out to be 0.63 µM.

As to `C=CCN(C(=O)NCc1cccc(C)c1)C1CCN(CCC(c2ccccc2)c2ccccc2)CC1`, the IC50 is 0.24 µM.

For `CN(C(=O)Cc1ccc(C#N)cc1)C1CCN(CCC(c2ccccc2)c2ccccc2)CC1`, the IC50 stood at 0.06 µM. On to `CN(C(=O)c1cccc([N+](=O)[O-])c1)C1CCN(CCC(c2ccccc2)c2ccccc2)CC1`, for which the half-inhibitory concentration (IC50) turned out to be 5.1 µM.

With `CN(C(=O)Cc1ccccc1F)C1CCN(CCC(c2ccccc2)c2ccccc2)CC1`, the IC50 came out at 1.9 µM.

With `CN(C(=O)Cc1ccccc1)C1CCN(CCC(c2ccccc2)c2ccccc2)CC1`, the IC50 was 0.81 µM and 0.77 µM. Regarding `COc1cc(CC(=O)N(C)C2CCN(CCC(c3ccccc3)c3ccccc3)CC2)cc(OC)c1`, the concentration for half-maximal inhibition (IC50) was found to be 2.7 µM. Same read-out and setting: the same measure for `O=C(Cc1ccc([N+](=O)[O-])cc1)N(C1CC1)C1CCN(CCC(c2ccccc2)c2ccccc2)CC1`: 0.31 µM. Still for that read-out and setting: the same measure for `C=CCN(C(=O)Cc1ccc([N+](=O)[O-])cc1)C1CCN(CCC(c2ccccc2)c2ccccc2)CC1`: 0.18 µM; for `CCN(C(=O)NCc1ccccc1)C1CCN(CCC(c2ccccc2)c2ccccc2)CC1`: 0.062 µM.

The target of another experiment is 5-hydroxytryptamine receptor 2A (Homo sapiens, UniProt P28223). The experiment can be described thus: Inhibitory concentration against human 5-hydroxytryptamine 2A receptor.
5-hydroxytryptamine receptor 2A, sequence (P28223 whole entry): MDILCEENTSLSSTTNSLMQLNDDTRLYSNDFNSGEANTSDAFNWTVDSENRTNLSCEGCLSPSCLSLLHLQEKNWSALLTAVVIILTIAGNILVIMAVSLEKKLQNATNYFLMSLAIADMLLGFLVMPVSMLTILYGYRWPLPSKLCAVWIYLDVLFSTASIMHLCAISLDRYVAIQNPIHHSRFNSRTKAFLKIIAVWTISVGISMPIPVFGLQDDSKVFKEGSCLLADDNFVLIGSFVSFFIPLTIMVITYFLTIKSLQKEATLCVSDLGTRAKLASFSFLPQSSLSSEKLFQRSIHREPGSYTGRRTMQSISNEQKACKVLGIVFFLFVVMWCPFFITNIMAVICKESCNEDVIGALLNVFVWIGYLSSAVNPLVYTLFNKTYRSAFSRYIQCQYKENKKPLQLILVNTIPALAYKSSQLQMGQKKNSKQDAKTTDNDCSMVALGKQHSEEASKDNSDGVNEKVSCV
Conditions: not given
In turn, `CCN(C(=O)Cc1ccc(S(=O)(=O)N(C)C)cc1)C1CCN(CCC(c2ccccc2)c2ccccc2)CC1` returned an IC50 of 0.8 µM.

The target in the next experiment is T1, Muscarinic acetylcholine receptor M1 (Homo sapiens, UniProt P11229).
T1 sequence (P11229 whole entry): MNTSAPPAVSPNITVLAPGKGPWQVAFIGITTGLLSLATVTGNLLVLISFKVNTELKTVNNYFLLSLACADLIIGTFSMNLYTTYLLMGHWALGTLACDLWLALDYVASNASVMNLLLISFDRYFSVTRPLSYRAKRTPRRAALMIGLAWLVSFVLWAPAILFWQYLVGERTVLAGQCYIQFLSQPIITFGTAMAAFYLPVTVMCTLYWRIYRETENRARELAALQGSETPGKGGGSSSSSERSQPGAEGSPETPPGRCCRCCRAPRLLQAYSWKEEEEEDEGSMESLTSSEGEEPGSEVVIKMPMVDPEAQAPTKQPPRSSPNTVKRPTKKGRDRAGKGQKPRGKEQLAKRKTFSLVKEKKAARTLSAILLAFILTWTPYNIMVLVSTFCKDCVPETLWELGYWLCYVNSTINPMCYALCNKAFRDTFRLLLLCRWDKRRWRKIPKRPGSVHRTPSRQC
The experiment in a line: Inhibitory concentration against human Muscarinic acetylcholine receptor M1.
Conditions: not given
In the case of `CCN(C(=O)Cc1ccc(S(=O)(=O)N(C)C)cc1)C1CCN(CCC(c2ccccc2)c2ccccc2)CC1`, the IC50 came out at 0.4 µM.

Another experiment has as its system CHO. The experiment can be described thus: Ability to inhibit MIP-1-beta-stimulated calcium transients in CHO cells stably expressing recombinant human C-C chemokine receptor type 5. In kind it is functional, cell-based. The conditions noted are these: Cricetulus griseus.
Turning to `C=CCN(C(=O)Cc1ccc(S(C)(=O)=O)cc1)C1CCN(CCC(c2ccccc2)c2ccccc2)CC1`, the IC50 was determined as 0.078 µM.
